Test results as given in patent US20260085101A1, “NOVEL PLATELET DERIVED GROWTH FACTOR PEPTIDE MIMETIC” (THE UNIVERSITY OF SYDNEY, priority 2022, published 2026).

How the values were obtained:
Type in all cases: cell-based
C2C12 mouse myoblasts [1] = assay: Scratch migration (chemotaxis) assay on C2C12 cells
Method: FIG. 2. Migration of C2C12 Mouse […] Cells Treated with PDGF and peptides JC5 and JC5a. C2C12 mouse fibroblast cells migrate across the scratch over 24 hours. Cells were treated with 10 ng/ml PDGF−AB (n=6), PDGF−BB (n=6), and 1 μg/ml of novel PDGF mimetic JC5 (n=6) and JC5a (n=3). […] There was also no statistically significant difference between the PDGF mimetic peptides and PDGF−AB and −BB positive controls. Error bars represent ±SD. The function of Compounds Ia (also referred to herein as JC5) and Ib (also referred to herein as JC5a) has been tested in vitro on the continuous cell line, C2C12 mouse myoblasts. In these in vitro assays recombinant PDGF−AB and −BB have been used as positive controls along with a serum starved no treatment control and the PDGF receptor inhibitor AG1296 co-treated with PDGF−AB as a negative control. The in vitro assays were designed to assess the major known functions of PDGF whilst also considering functions that are relevant to its in vivo applications. These functions were chemotaxis, collagen contraction, vascular tube formation and activation of the PDGF receptors via phosphorylation of Akt and Erk. Chemotaxis was assessed by making a scratch through a 2D culture of C2C12 cells following treatment with the four controls and the peptides JC5 and JC5a. They were then incubated for 24 hours at 37° C. Migration of the cells across the scratch at the conclusion of the incubation was measured and compared to the relevant controls described above. PDGF is a well-established mediator of chemotaxis and is expected to increase migration of the cells across the scratch over the course of 24 hours post treatment.

C2C12 mouse myoblasts [2] = assay: Collagen gel contraction assay with C2C12 cells
Description: FIG. 3. Collagen Contraction of C2C12 Mouse Fibroblasts Treated with PDGF and peptides JC5 and JC5a. […] Error bars represent ±SD, n=8/4. The function of Compounds Ia (also referred to herein as JC5) and Ib (also referred to herein as JC5a) has been tested in vitro on the continuous cell line, C2C12 mouse myoblasts. In these in vitro assays recombinant PDGF−AB and −BB have been used as positive controls along with a serum starved no treatment control and the PDGF receptor inhibitor AG1296 co-treated with PDGF−AB as a negative control. The in vitro assays were designed to assess the major known functions of PDGF whilst also considering functions that are relevant to its in vivo applications. These functions were chemotaxis, collagen contraction, vascular tube formation and activation of the PDGF receptors via phosphorylation of Akt and Erk. Collagen contraction is an important function during wound healing of many tissues including the heart. This can be simulated in vitro using a collagen gel contraction assay. This was assessed using C2C12 cells treated with the positive controls 10 ng/ml recombinant PDGF-BB and PDGF−AB, negative control 10 μM AG1296 co-treated with 10 ng/ml recombinant PDGF−AB, a serum starved no treatment control and 1 μg/ml of the peptides JC5 and JC5a. C2C12 mouse myoblasts were seeded in a 3D collagen gel crosslinked with NaOH and incubated at 37° C. for 24 hours following treatment with the four controls and peptides JC5 and JC5a.

[3] = system: primary human coronary artery endothelial cells (HCAECs); assay: Vascular tube forming assay on Geltrex; details: 24 hours
Method: FIG. 4. Tube formation of Human Coronary Artery Endothelial Cells Treated with PDGF and PDGF Mimetic Peptide JC5. Human coronary artery endothelial cells treated with 50 ng/ml of PDGF−AB and PDGF−BB produced longer tubes than untreated cells and cells treated with the PDGF receptor inhibitor AG1296+PDGF−AB. […] Error bars represent ±SD, n=3/group.
PDGF has a well-established role in angiogenesis in vivo. To simulate this function in vitro a vascular tube forming assay on primary human coronary artery endothelial cells (HCAECs) was carried out. Cells were seeded on top of 3D growth factor reduced Geltrex basement membrane extract and incubated for 24 hours following treatment with the PDGF−AB, PDGF-BB, no treatment control, AG1296+PDGF−AB negative control, and peptides JC5 and JC5a. Over the course of 24 hours the cells form tubes throughout the gel. PDGF is reported to facilitate tube formation of endothelial cells in in vitro 3D assays.
Cells treated with 50 ng/ml of PDGF−AB, PDGF-BB, and 5 μg/ml of JC5 produced longer more uniform tubes than untreated cells and cells treated with the negative control 10 μM PDGF receptor inhibitor AG1296 co-treated with 50 ng/ml PDGF−AB (FIG. 4). The positive controls PDGF−AB and PDGF−BB produced tubes that were 560.7 μm (±53.93) and 616.3 μm (±39.07), respectively. […] The no treatment control and AG1296+PDGF−AB negative control produced tubes that were 305 μm and 307.7 μm, respectively. […] In summary, JC5 has similar vascular tube forming ability to recombinant human PDGF−AB and PDGF-BB.

PDGF receptor = target: T1, PDGF receptor (Mus musculus, UniProt P05622); assay: Western blot for phosphorylation of ERK in C2C12 cells (PDGF receptor activation); details: 10 ng/ml PDGF, 1 μg/ml peptide, vs no treatment and AG1296+PDGF−AB controls
T1 construct: Phosphorylation of ERK following treatment of C2C12 Cells with PDGF and JC5; endogenous in cells; host or cells: C2C12 mouse myoblasts
T1 sequence (P05622 32-1098): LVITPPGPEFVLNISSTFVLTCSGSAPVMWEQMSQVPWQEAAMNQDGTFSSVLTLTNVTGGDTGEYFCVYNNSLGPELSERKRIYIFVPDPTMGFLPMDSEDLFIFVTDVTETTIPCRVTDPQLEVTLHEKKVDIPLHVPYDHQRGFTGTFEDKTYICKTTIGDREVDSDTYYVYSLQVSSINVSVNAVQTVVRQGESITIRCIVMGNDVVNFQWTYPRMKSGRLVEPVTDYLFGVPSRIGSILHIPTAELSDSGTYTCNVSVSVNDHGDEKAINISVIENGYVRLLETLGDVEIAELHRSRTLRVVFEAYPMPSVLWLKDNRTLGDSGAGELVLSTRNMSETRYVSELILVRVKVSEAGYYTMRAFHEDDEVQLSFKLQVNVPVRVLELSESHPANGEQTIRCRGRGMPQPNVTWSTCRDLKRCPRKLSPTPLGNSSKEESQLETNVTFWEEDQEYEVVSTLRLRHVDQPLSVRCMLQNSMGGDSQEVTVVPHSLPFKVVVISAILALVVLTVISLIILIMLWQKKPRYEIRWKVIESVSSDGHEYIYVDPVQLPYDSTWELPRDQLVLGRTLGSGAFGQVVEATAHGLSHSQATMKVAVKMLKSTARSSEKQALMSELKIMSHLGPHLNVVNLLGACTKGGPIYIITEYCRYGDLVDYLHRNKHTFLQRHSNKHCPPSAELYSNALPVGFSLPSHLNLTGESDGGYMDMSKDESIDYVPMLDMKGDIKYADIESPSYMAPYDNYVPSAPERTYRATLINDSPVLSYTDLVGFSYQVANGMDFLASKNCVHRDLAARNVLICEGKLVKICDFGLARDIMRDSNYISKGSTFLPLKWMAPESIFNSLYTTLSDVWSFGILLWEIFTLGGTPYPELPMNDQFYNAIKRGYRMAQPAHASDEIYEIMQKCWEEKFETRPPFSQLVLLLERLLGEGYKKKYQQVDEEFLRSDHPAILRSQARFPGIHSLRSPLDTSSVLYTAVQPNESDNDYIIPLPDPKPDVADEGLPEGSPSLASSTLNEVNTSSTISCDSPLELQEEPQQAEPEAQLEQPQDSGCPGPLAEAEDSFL
Method: FIG. 5. Phosphorylation of ERK following treatment of C2C12 Cells with PDGF and JC5. Western blots for total (ERK) and phosphorylated ERK (pERK) at 42 and 44 kDa show an increase in phosphorylation following treatment with 10 ng/ml PDGF−BB and 1 μg/ml of JC5. FIG. 6. Phosphorylation of ERK following treatment of C2C12 Cells with PDGF and JC5a. Western blots for total (ERK) and phosphorylated ERK (pERK) at 42 and 44 kDa show an increase in phosphorylation 10 minutes post treatment with 10 ng/ml PDGF−BB and 1 μg/ml of novel mimetic peptide JC5a. JC5a maintained this increased phosphorylation of ERK at 30 minutes post treatment. PDGF receptor activation takes place via autophosphorylation of tyrosine […] residues at key sites throughout the intracellular domain. Autophosphorylation engages different signaling pathways, including ERK (MAPK) which participates in proliferation, cell survival, angiogenesis, and chemotactic activity of cells. Phosphorylation of ERK indicates successful activation of the PDGF receptor.

[4] = system: C3H10T½ mouse embryonic fibroblasts; assay: EdU proliferation assay (flow cytometry); details: C3H10T½ cells; 10 μM AG1296 with 20 ng/ml PDGF−BB
Method: FIG. 8. Proliferation of C3H10T½ Cells Following Treatment with PDGF and Novel PDGF Mimetic Peptides. Cultured C3H10T½ mouse embryonic fibroblast cells were treated with 20 ng/ml recombinant PDGF−AB or PDGF−BB protein ligands, and 2 μg/ml of novel PDGF mimetics JC5 or JC5a for 24 hr, in the presence of 1% fetal bovine serum (FBS). Percent proliferating cell was determined after a 2 hr pulse with nucleotide analogue EdU at the end of the incubation period. […] Co-treatment of protein/peptides with 10 μM of PDGF receptor antagonist, AG1296, confirmed that PDGF-BB-stimulated proliferation occurred via the PDGF ligand/receptor pathway. […] Error bars represent ±SD, n=3. Statistical analysis was using One-Way Anova: * p<0.05; ** p<0.01; *** p<0.001; **** p<0.0001. The mitotic effects of PDGF mimetic peptides JC5 and JC5a were tested using cultured C3H10T½ mouse embryonic fibroblasts. Proliferation was assayed after a pulse of nucleotide analogue 5-ethynyl-2′-deoxyuridine (EdU) and fluorescent detection using flow cytometry. Cells were treated with 20 ng/ml PDGF−BB or PDGF−AB, and 2 μg/ml of peptides JC5 or JC5a, in the presence of 1% fetal bovine serum (FBS) and DMEM for 24 hr. 10% FBS was used as a positive control, and co-treatments with specific PDGF receptor antagonist, AG1296, was used to ascertain whether proliferation occurred via the PDGF ligand/receptor pathway. Assays were performed in biological triplicate.

PDGF−BB: recombinant human PDGF-BB protein ligand, positive control
migration of cells across the scratch (C2C12 mouse myoblasts [1]; 24 hours at 37° C., 10 ng/ml PDGF, 1 μg/ml peptides, mean (±SD)): 75.02%
increase in migration compared to the negative control (Mean Diff) (C2C12 mouse myoblasts [1]; 24 hours, vs AG1296+PDGF−AB negative control): 58.45%
increase in migration compared to the no treatment control (Mean Diff.) (C2C12 mouse myoblasts [1]; 24 hours, vs no treatment control): 54.70%
collagen gel contracted to % of its initial surface area (C2C12 mouse myoblasts [2]; 24-hour incubation, 10 ng/ml PDGF, 1 μg/ml peptides, 10 μM AG1296, mean (±SD)): 23.42%
difference in collagen gel area versus negative control AG1296 co-treated with PDGF−AB (Mean Diff.) (C2C12 mouse myoblasts [2]; 24 hours, vs negative control (55.25%)): 31.83%
difference in collagen gel area versus no treatment control (Mean Diff.) (C2C12 mouse myoblasts [2]; 24 hours, vs no treatment control (41.27%)): 17.86%
tube length ([3]; 50 ng/ml PDGF, 5 μg/ml JC5, 10 μM AG1296, mean (±SD)): 616.3 μm
increased tube length compared to the negative control (Mean Diff.) ([3]; vs AG1296+PDGF−AB (307.7 μm)): 308.7 μm
increased tube length compared to the no treatment control (Mean Diff.) ([3]; vs no treatment control (305 μm)): 311.3 μm
phosphorylation of ERK (pERK) (PDGF receptor): phosphorylation of ERK (pERK) can be seen

COc1cc2ncc(-c3ccccc3)nc2cc1OC [AG1296, reference compound]
effect of AG1296 co-treatment on PDGF−BB-stimulated EdU uptake [4]: significantly inhibited
